Data: patent US12662470B2, “Hydroxy and (halo)alkoxy substituted tetrahydrofurans as modulators of sodium channels” (VERTEX PHARMACEUTICALS INCORPORATED, priority 2021, dated 2026)

The compounds below were run against human NaV 1.8 (Homo sapiens, UniProt Q9Y5Y9) (assay: E-VIPR Assay Detecting and Measuring NaV Inhibition Properties). Conditions: HEK cells expressing a truncated form of human NaV 1.8; compound number with "*": assay performed in the presence of human serum.
Format: cell-based
Source text: Sodium ion channels are voltage-dependent proteins that can be activated by inducing membrane voltage changes by applying electric fields. The electrical stimulation instrument and methods of use, referred to as E-VIPR, are described in International Publication No. WO 2002/008748 A3 and C.-J. Huang et al. Characterization of voltage-gated sodium channel blockers by electrical stimulation and fluorescence detection of membrane potential, 24 Nature Biotech. 439-46 (2006), both of which are incorporated by reference in their entirety. The instrument comprises a microtiter plate handler, an optical system for exciting the coumarin dye while simultaneously recording the coumarin and oxonol emissions, a waveform generator, a current- or voltage-controlled amplifier, and parallel electrode pairs that are inserted into assay plate wells. Under integrated computer control, this instrument passes user-programmed electrical stimulus protocols to cells within the wells of the microtiter plate.
16-20 hours prior to running the assay on E-VIPR, HEK cells expressing a truncated form of human NaV 1.8 with full channel activity were seeded into microtiter 384-well plates, pre-coated with matrigel, at a density of 25,000 cells per well. 2.5-5% KIR2.1 Bacmam virus was added to the final cell suspension before seeding into cell plates. HEK cells were grown in Dulbecco's Modified Eagle's Medium (DMEM) supplemented with 10% FBS (Fetal Bovine Serum, qualified; Sigma #F4135), 1% NEAA (Non-Essential Amino Acids, Gibco #11140), 1% HEPES (Gibco #15630), 1% Pen-Strep (Penicillin-Streptomycin; Gibco #15140) and 5 μg/ml Blasticidin (Gibco #R210-01). Cells were expanded in vented cap cell culture flasks, with 90-95% humidity and 5% CO2.
Reagents and Stock Solutions:
• 100 mg/mL Pluronic F-127 (Sigma #P2443), in dry DMSO • Compound Plates: Corning 384-well Polypropylene Round Bottom #3656 • Cell Plates: 384-well tissue culture treated plates (Greiner #781091-2B)
2.5-5% KIR 2.1 Bacmam virus (produced in-house), prepared as described in Section 3.3 of J. A. Fornwald et al., Gene Expression in Mammalian Cells Using BacMam, a Modified Baculovirus System, 1350 Methods in Molecular Biology 95-116 (2016), the entire contents of which are incorporated by reference. The concentration used can be dependent on viral titer of each batch.
5 mM DiSBAC6(3), a voltage sensitive oxonol acceptor (CAS number 169211-44-3; 5-[3-(1,3-dihexylhexahydro-4,6-dioxo-2-thioxo-5-pyrimidinyl)-2-propen-1-ylidene]-1,3-dihexyldihydro-2-thioxo-4,6(1H,5H)-pyrimidinedione), in dry DMSO. The preparation of DiSBAC6(3) is analogous to that of DiSBAC4(3) as described in Voltage Sensing by Fluorescence Resonance Energy Transfer in Single Cells, Gonzalez, J. E. and Tsien, R. Y. (1995) Biophys. J. 69, 1272-1280.
5 mM CC2-DMPE, a commercially available membrane-bound coumarin phospholipid FRET donor (ThermoFisher Scientific catalog number K1017, CAS number 393782-57-5; tetradecanoic acid, 1,1′-[(1R)-1-[8-(6-chloro-7-hydroxy-2-oxo-2H-1-benzopyran-3-yl)-3-hydroxy-3-oxido-8-oxo-2,4-dioxa-7-aza-3-phosphaoct-1-yl]-1,2-ethanediyl] ester) was prepared in dry DMSO. See also, Improved indicators of cell membrane potential that use fluorescence resonance energy transfer, Gonzalez, J. E. and Tsien, R. Y. (1997) Chem. Biol. 4, 269-277.
Voltage Assay Background Suppression Compound (VABSC-1) is prepared in H2O (89-363 mM, range used to maintain solubility)
Human Serum (HS, Millipore #S1P1-01KL, or Sigma SLBR5469V and SLBR5470V as a 50%/50% mixture, for 25% assay final concentration)
• Sodium Chloride 160 mM (9.35 g/L), Potassium Chloride, 4.5 mM (0.335 g/L), Glucose 10 mM (1.8 g/L), Magnesium Chloride (Anhydrous) 1 mM (0.095 g/L), Calcium Chloride 2 mM (0.222 g/L), HEPES 10 mM (2.38 g/L) in water. […]

Chain of human NaV 1.8 (Q9Y5Y9 126-1722 limits assumed): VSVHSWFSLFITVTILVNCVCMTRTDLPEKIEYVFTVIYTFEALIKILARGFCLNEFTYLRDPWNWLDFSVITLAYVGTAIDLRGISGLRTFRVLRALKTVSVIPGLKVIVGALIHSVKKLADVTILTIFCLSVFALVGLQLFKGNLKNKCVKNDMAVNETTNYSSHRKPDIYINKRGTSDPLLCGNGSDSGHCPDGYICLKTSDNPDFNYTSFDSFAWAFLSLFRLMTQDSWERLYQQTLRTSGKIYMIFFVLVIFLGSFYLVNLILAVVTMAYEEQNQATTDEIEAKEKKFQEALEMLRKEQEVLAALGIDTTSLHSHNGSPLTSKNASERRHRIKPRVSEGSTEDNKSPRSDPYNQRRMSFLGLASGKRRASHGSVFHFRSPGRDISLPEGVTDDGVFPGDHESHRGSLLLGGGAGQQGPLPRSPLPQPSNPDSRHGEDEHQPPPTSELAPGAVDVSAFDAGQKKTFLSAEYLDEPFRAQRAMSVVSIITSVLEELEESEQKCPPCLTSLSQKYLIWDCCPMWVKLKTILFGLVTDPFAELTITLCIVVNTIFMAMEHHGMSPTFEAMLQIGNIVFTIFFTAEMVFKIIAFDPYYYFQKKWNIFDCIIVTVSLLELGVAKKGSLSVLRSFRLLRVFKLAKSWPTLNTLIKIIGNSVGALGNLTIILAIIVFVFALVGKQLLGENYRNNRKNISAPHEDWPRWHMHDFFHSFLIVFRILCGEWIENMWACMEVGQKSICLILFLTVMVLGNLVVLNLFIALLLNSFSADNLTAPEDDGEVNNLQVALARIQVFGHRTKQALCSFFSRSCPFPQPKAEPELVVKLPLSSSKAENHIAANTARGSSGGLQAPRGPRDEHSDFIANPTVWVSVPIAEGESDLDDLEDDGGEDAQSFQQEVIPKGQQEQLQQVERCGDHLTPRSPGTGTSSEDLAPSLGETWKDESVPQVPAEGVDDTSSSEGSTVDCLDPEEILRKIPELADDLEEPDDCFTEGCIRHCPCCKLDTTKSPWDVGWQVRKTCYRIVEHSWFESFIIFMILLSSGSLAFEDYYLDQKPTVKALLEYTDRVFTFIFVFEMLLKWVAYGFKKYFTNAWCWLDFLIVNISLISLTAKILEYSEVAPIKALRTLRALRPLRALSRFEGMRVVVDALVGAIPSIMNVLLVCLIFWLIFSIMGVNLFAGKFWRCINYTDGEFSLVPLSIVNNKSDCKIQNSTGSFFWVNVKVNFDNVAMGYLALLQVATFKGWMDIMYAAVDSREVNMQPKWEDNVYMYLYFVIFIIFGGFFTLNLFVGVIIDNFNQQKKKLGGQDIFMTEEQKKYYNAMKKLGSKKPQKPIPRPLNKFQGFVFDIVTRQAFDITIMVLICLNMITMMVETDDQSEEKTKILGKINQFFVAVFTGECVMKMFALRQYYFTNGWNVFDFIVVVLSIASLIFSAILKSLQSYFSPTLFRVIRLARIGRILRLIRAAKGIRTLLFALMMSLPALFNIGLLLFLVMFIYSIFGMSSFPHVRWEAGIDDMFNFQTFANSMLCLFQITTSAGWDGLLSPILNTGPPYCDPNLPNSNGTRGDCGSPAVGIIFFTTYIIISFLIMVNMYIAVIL

`COc1c([C@@H]2[C@H](OC)[C@H](C)O[C@H]2C(=O)Nc2ccnc([C@@H](O)CO)c2)ccc(F)c1F` (single isomer, unassigned) [Compound 9, rel-(2R*,3R*,4S*,5S*)-3-(3,4-difluoro-2-methoxyphenyl)-N-(2-(1,2-dihydroxyethyl)pyridin-4-yl)-4-methoxy-5-methyltetrahydrofuran-2-carboxamide] and `COc1c([C@@H]2[C@H](OC)[C@H](C)O[C@H]2C(=O)Nc2ccnc([C@H](O)CO)c2)ccc(F)c1F` (single isomer, unassigned) [Compound 10, rel-(2R*,3R*,4S*,5S*)-3-(3,4-difluoro-2-methoxyphenyl)-N-(2-(1,2-dihydroxyethyl)pyridin-4-yl)-4-methoxy-5-methyltetrahydrofuran-2-carboxamide] cannot be ordered by IC50: at least 1000 nM for the first, at least 1000 nM for the second.

`COc1c([C@@H]2[C@H](OC)[C@H](C)O[C@H]2C(=O)Nc2ccnc([C@@](C)(O)CO)c2)ccc(F)c1F` (single isomer, unassigned) [Compound 11, rel-(2R*,3R*,4S*,5S*)-3-(3,4-difluoro-2-methoxyphenyl)-N-(2-(1,2-dihydroxypropan-2-yl)pyridin-4-yl)-4-methoxy-5-methyltetrahydrofuran-2-carboxamide] and `COc1c([C@@H]2[C@H](OC)[C@H](C)O[C@H]2C(=O)Nc2ccnc([C@](C)(O)CO)c2)ccc(F)c1F` (single isomer, unassigned) [Compound 12, rel-(2R*,3R*,4S*,5S*)-3-(3,4-difluoro-2-methoxyphenyl)-N-(2-(1,2-dihydroxypropan-2-yl)pyridin-4-yl)-4-methoxy-5-methyltetrahydrofuran-2-carboxamide] cannot be ordered by IC50: at least 1000 nM for the first, at least 1000 nM for the second.

`COc1c([C@H]2[C@H](C(=O)Nc3ccnc([C@@H](O)CO)c3)OC(C)(C)[C@H]2OC)ccc(F)c1F` (single isomer, unassigned) [Compound 20] and `COc1c([C@@H]2[C@@H](C(=O)Nc3ccnc([C@@H](O)CO)c3)OC(C)(C)[C@@H]2OC)ccc(F)c1F` (single isomer, unassigned) [Compound 21] cannot be ordered by IC50: 100 to 1000 nM for the first, at least 1000 nM for the second.

`COc1c([C@H]2[C@H](C(=O)Nc3ccnc([C@H](O)CO)c3)OC(C)(C)[C@H]2OC)ccc(F)c1F` (single isomer, unassigned) [Compound 22] and `COc1c([C@@H]2[C@@H](C(=O)Nc3ccnc([C@H](O)CO)c3)OC(C)(C)[C@@H]2OC)ccc(F)c1F` (single isomer, unassigned) [Compound 23] cannot be ordered by IC50: 100 to 1000 nM for the first, at least 1000 nM for the second.

`COc1c([C@@H]2[C@@H](C(=O)Nc3ccnc(C(N)=O)c3)OC(C)(C)[C@@H]2OC)ccc(F)c1F` (stereo in doubt) [Compound 19, rel-4-((2S,3S,4R)-3-(3,4-difluoro-2-methoxyphenyl)-4-methoxy-5,5-dimethyltetrahydrofuran-2-carboxamido)picolinamide] showed an IC50 of at least 1000 nM.

Same assay, conditions: HEK cells expressing a truncated form of human NaV 1.8; compound number without "*" (not marked as run in the presence of human serum)

First: COc1c([C@H]2[C@H](C(=O)Nc3ccnc(C(N)=O)c3)OC(C)(C)[C@H]2OC)ccc(F)c1F (stereo in doubt) [Compound 18, rel-4-((2R,3R,4S)-3-(3,4-difluoro-2-methoxyphenyl)-4-methoxy-5,5-dimethyltetrahydrofuran-2-carboxamido)picolinamide]
Second: COc1c([C@H]2[C@H](C(=O)Nc3ccnc(C(N)=O)c3)O[C@@](C)(C(F)(F)F)[C@H]2OC)ccc(F)c1F [Compound 1, 4-((2R,3R,4S,5R)-3-(3,4-difluoro-2-methoxyphenyl)-4-methoxy-5-methyl-5-(trifluoromethyl)tetrahydrofuran-2-carboxamido)picolinamide]
The IC50 of the first is higher: 10 to 100 nM for the first, under 10 nM for the second. The second is the more potent here.

First: COc1c([C@H]2[C@H](C(=O)Nc3ccnc(C(N)=O)c3)O[C@@](C)(C(F)(F)F)[C@H]2O)ccc(F)c1F [Compound 2, 4-((2R,3R,4S,5R)-3-(3,4-difluoro-2-methoxyphenyl)-4-hydroxy-5-methyl-5-(trifluoromethyl)tetrahydrofuran-2-carboxamido)picolinamide]
Second: CO[C@H]1[C@@H](c2ccc(F)c(F)c2C)[C@H](C(=O)Nc2ccnc(C(N)=O)c2)O[C@@]1(C)C(F)(F)F [Compound 7, 4-((2R,3R,4S,5R)-3-(3,4-difluoro-2-methylphenyl)-4-methoxy-5-methyl-5-(trifluoromethyl)tetrahydrofuran-2-carboxamido)picolinamide]
The IC50 of the first is higher: 100 to 1000 nM for the first, under 10 nM for the second. The second is the more potent here.

First: COc1c([C@H]2[C@H](C(=O)Nc3ccnnc3)O[C@@](C)(C(F)(F)F)[C@H]2O)ccc(F)c1F [Compound 3, (2R,3R,4S,5R)-3-(3,4-difluoro-2-methoxyphenyl)-4-hydroxy-5-methyl-N-(pyridazin-4-yl)-5-(trifluoromethyl)tetrahydrofuran-2-carboxamide]
Second: COc1c([C@H]2[C@H](C(=O)Nc3ccnnc3)O[C@@](C)(C(F)(F)F)[C@H]2OC)ccc(F)c1C [Compound 4, (2R,3R,4S,5R)-3-(4-fluoro-2-methoxy-3-methylphenyl)-4-methoxy-5-methyl-N-(pyridazin-4-yl)-5-(trifluoromethyl)tetrahydrofuran-2-carboxamide]
The IC50 of the first is higher: at least 1000 nM for the first, under 10 nM for the second.

First: COc1c([C@H]2[C@H](C(=O)Nc3ccnc(C(N)=O)c3)O[C@@](C)(C(F)(F)F)[C@H]2OC)ccc(F)c1C [Compound 5, 4-((2R,3R,4S,5R)-3-(4-fluoro-2-methoxy-3-methylphenyl)-4-methoxy-5-methyl-5-(trifluoromethyl)tetrahydrofuran-2-carboxamido)picolinamide]
Second: COc1c([C@H]2[C@H](C(=O)Nc3ccc([C@@H](O)CO)nc3)O[C@@](C)(C(F)(F)F)[C@H]2OC)ccc(F)c1C [Compound 6, (2R,3R,4S,5R)-N-(6-((R)-1,2-dihydroxyethyl)pyridin-3-yl)-3-(4-fluoro-2-methoxy-3-methylphenyl)-4-methoxy-5-methyl-5-(trifluoromethyl)tetrahydrofuran-2-carboxamide]
The IC50 of the first is lower: under 10 nM for the first, 10 to 100 nM for the second.

`COc1c([C@@H]2[C@H](OC)[C@H](C)O[C@H]2C(=O)Nc2ccnc(C(N)=O)c2)ccc(F)c1F` [Compound 8, 4-((2R,3R,4S,5S)-3-(3,4-difluoro-2-methoxyphenyl)-4-methoxy-5-methyltetrahydrofuran-2-carboxamido)picolinamide] and `CCO[C@H]1[C@@H](c2ccc(F)c(F)c2OC)[C@H](C(=O)Nc2ccnc(C(N)=O)c2)O[C@H]1C` [Compound 13, 4-((2R,3R,4S,5S)-3-(3,4-difluoro-2-methoxyphenyl)-4-ethoxy-5-methyltetrahydrofuran-2-carboxamido)picolinamide] fall in the same range of IC50: 100 to 1000 nM for the first, 100 to 1000 nM for the second.

`COc1c([C@@H]2[C@H](OC(C)C)[C@H](C)O[C@H]2C(=O)Nc2ccnc(C(N)=O)c2)ccc(F)c1F` [Compound 14, 4-((2R,3R,4S,5S)-3-(3,4-difluoro-2-methoxyphenyl)-4-isopropoxy-5-methyltetrahydrofuran-2-carboxamido)picolinamide] and `COc1c([C@@H]2[C@H](OC(C)C)[C@H](C)O[C@H]2C(=O)Nc2ccc(C(N)=O)nc2)ccc(F)c1F` [Compound 15, 5-((2R,3R,4S,5S)-3-(3,4-difluoro-2-methoxyphenyl)-4-isopropoxy-5-methyltetrahydrofuran-2-carboxamido)picolinamide] cannot be ordered by IC50: 100 to 1000 nM for the first, at least 1000 nM for the second.
